Results from patent US11573241B2, “Total cellular iron as a marker of cancer stem cells and uses thereof” (Institut National de la Sante et de la Recherche Medicale …, priority 2016, dated 2023).
Where a SMILES comes first, the peptide text is derived from it. The star is where a group is joined. Cbz = O=C(OCc1ccccc1)*; CH2F = FC*

Assays:
HMLER CD24^low cells [1] = experiment: Immunoblotting of iron homeostasis regulatory proteins; format: cell-based, human; settings: 24 h
[2] = tested on: patient-derived xenografts (PDX 1 and 2); format: in vivo, NOD/SCID mice; settings: intra-peritoneal, 4 weeks
Text: Patient derived xenografts (PDXs). PDXs were established as previously described in Charafe-Jauffret et al., Cancer Res. 73, 7290-7300 (2013) from tissue samples collected prospectively at the Institut Paoli-Calmettes (IPC). Samples of human origin and associated data were obtained from the IPC/CRCM Tumor Bank that operates under authorization #AC-2007-33 granted by the French Ministry of Higher Education and Research. Before scientific use of samples and data, patients were appropriately informed and asked to consent in writing, in compliance with French and European regulations. The project was approved by the IPC Institutional Review Board. Cells from 2 different patient-derived xenografts (PDX 1 and 2) were transplanted orthotopically into fat pads of 4-week-old female non-obese diabetic/severe combined immunodeficient (NOD/SCID) mice (NOD.CB17-Prkdcscid/J, Charles River France) after mechanical treatment and enzymatic digestion using collagenase/hyaluronidase (StemCell Technologies) to generate single-cell suspension suitable for implantation in vivo. PDXs were primarily established as previously described in Caraft-Jauffret et al., and evaluated for ALDEFLUOR-positive CSCs. We injected single cancer cells into fat pads of NOD/SCID mice and monitored tumor growth. When tumor size reached approximately 150 mm^3, Sal and AM5 treatments were performed as indicated above for FIGS. 14 and 15. Tumor growth was compared with that of docetaxel and placebo-treated controls. After 4 weeks of treatment, the animals were sacrificed and the proportion of ALDEFLUOR-positive CSCs was measured in each residual tumor. All animal studies were approved by the French Ministry of Higher Education and Research (authorization number D130554) and ethical committee (number 14), of Aix-Marseille Université. No randomization was used and experimenters were blinded to drug treatments and tissue analyses.
Aldefluor assay. The analysis was processed on single-cell suspension from the PDXs obtained as described above. The ALDEFLUOR Kit (Stemcell™ Technologies) was used to isolate the population with high aldehyde dehydrogenase enzymatic activity using an LSR2 cytometer (Becton Dickinson Biosciences), as previously described in Charafe-Jauffret et al. To eliminate cells of mouse origin from the PDXs, we used staining with an anti-H2Kd antibody (BD Biosciences, 1:200, 20 min on ice) followed by staining with a secondary antibody labeled with phycoerythrin (PE; Jackson Laboratories, 1:250, 20 min on ice).

[3] = tested on: cells from treated PDX 1 and 2; experiment: Limiting dilution assay, tumor-seeding capacity (ELDA); format: in vivo, NOD/SCID mice; settings: re-implantation into secondary mice
Text: Limiting dilution assay. Cells from 4-week treated mice were re-implanted into one to four secondary NOD/SCID mice with injection of 10, 50, 500 or 5000 cells for each treated tumor to functionally evaluate the proportion of residual CSCs in each treatment group (Unt., Doc, Sal, AM5) for the PDX 1 and 2. Each mouse that developed a tumor reaching a size of 10 mm was considered as a tumor-bearing mouse.
Estimation of number of CSCs in vivo. The number of mammary gland outgrowths obtained in a fat pad after cell re-implantation is currently used to evaluate the number of stem cells able to repopulate this fat pad. It is based on self-renewal and differentiation abilities, two hallmarks of stem cells. In the same manner, estimation of the number of CSCs can be obtained from tumor outgrowth data collected after limited dilution re-implantation of each group of treatments, based on tumor-initiating capacities of CSCs. For calculation, an online tool is available using Extreme Limiting Dilution Analysis (ELDA) (http://bioinf.wehi.edu.au/software/elda/) for limiting dilution analysis based on the Poisson single-hit model according to the number of outgrowths observed and the number of pat pad re-implanted for each cell dilution.

HMLER CD24^low cells [4] = experiment: Annexin V/PI assay; format: cell-based, human; settings: 48 h
Method: (§1) Annexin V/PI assay. Cells were treated as indicated. After treatment, cell death was quantified using Annexin V-FITC/Propidium Iodide (PI) assay according to the manufacturer's protocol (FITC Annexin V Apoptosis Detection Kit II, 556570, BD Pharmingen™) and analyzed by a LSRFortessa™ flow cytometer (BD Bioscience, San Jose, Calif.). The data were processed using Cell Quest software (BD Biosciences).

iCSCL-10A2 cells = experiment: Annexin V/PI assay; format: cell-based; settings: Sal or AM5 0.5 μM, 72 h
Method: as §1

HMLER cells = experiment: Flow cytometry of CD44 and CD24 expression after TGF beta; format: cell-based, human
Method: FIG. 11. […] Briefly, HMLER cells were treated as indicated with TGF beta in the presence or absence of transferrin. CD44 and CD24 expression were assessed by flow cytometry. CD44^+ indicates the percent of CD44^high/CD24^Low/− population gated.

MCF-7 cells [5] = experiment: Flow cytometry of CD44 and CD24 expression after OSM; format: cell-based, human; settings: OSM 100 ng/ml, 48 h
Method: FIG. 8. Knock down of ferritin expression interferes with the OSM-mediated induction of CD44^highCD24^low/− in MCF-7 cells. MCF-7 were transfected with siRNA control or siRNA specifically targeting ferritin mRNA (FTH1) during 48 h and then the cells were incubated with OSM (100 ng/ml) for 48 h. a. Analysis of CD44 and CD24 expression by flow cytometry. Left panel, CSC indicates the percent of CD44^high/CD24^Low or negative (Low/−) population gated. Right panels, histogram representations of CD44 or CD24 expression (dark grey), or by the isotype control (light grey). b. Graphs representing the percent mean of CD44^high/CD24^Low/− population gated. c. Graphs representing the mean fluorescence intensity (IF) of CD24 and CD44, respectively. d. Quantification of the ALDH+ population in MCF-7 cells treated as indicated above, and measured by flow cytometry. Bars and error bars correspond to mean values and s.d. of two biological replicates, respectively. **P<0.01, ns, not significant, Student's t-test.
Small interfering RNA transfection. Suitable small interfering RNAs (siRNA) were designed with the Qiagen RNA interference designer tool for specific down-regulation of FTH1. The sequence used for FTH1 was 5′-[…]-3′ (S100300251) targeting the sequence following 5′-[…]-3′ and a negative control siRNA for FTH1 (5′-[…]-3′, (S103089212). Subconfluent cells were transfected with siRNA in Opti-MEM using the Oligofectamine™ reagent (Invitrogen) for 48 h. Then, cells were treated with OSM (100 ng/mL for 48 h) prior to protein or RNA extraction and flow cytometry analysis for markers as indicated.

MCF-7 cells [6] = experiment: Immunoblotting of EMT markers and ferritin after OSM; format: cell-based, human; settings: OSM 100 ng/ml
Method: FIG. 7. Knock down of ferritin expression interferes with the OSM-mediated induction of EMT in MCF-7 cells. left, Immunoblotting showing levels of EMT markers in MCF-7 cells treated or not with 100 ng/ml of OSM for 72 h. right Immunoblotting showing levels of ferritin and fibronectin proteins in MCF-7 cells transfected with siRNA control (scramble) or siRNA targeting specifically ferritin mRNA (FTH1) during 48 h and then the cells were incubated with OSM (100 ng/ml) for 48 h. Beta-tubulin is used as loading control. MCF-7 were transfected.
Immunoblotting. Cells were treated as indicated, then washed twice with PBS and lysed with 2× Laemmli buffer. Cell extracts were heated at 95° C. for 5 min, sheared through a 26-gauge needle and quantified with a Nanodrop 2000 (Thermo Scientific). Protein lysates (˜100 μg) were resolved by SDS-PAGE electrophoresis and transferred onto PVDF membranes (Amersham). Membranes were blocked with 5% BSA, 0.1% Tween-20/TBS for 1 h. The blots were then probed with the relevant primary antibodies in 5% BSA, 0.1% Tween-20/TBS at 4° C. overnight with gentle agitation. Membranes were washed with 0.1% Tween-20/TBS for 30 min and were incubated with secondary antibodies for 1 h at RT. Antigens were detected by ECL (Amersham). Imaging was performed using a ChemiDoc™ XRS+ System (Biorad).

## CCCNC(=O)[C@H]1O[C@@H]1C(=O)N[C@H](C(=O)N1CCC[C@H]1C(=O)O)[C@@H](C)CC [CA-074]
HMLER CD24^low cells [1]
  ferritin degradation under AM5, cathepsin B inhibition: degradation was prevented

## CC(=O)O[C@@]12CO[C@@H]1C[C@H](O)[C@@]1(C)C(=O)[C@H](O)C3=C(C)[C@@H](OC(=O)[C@H](O)[C@@H](NC(=O)OC(C)(C)C)c4ccccc4)C[C@@](O)([C@@H](OC(=O)c4ccccc4)[C@H]21)C3(C)C [Doc, docetaxel, reference compound]
[2]
  tumor growth: less effective
[3]
  tumor-seeding capacity of tumor cells treated in vivo: lower response than treatment with either AM5 or AM5+Doc

## CC(=O)N[C@@H](CS)C(=O)O [NAC, N-acetyl-L-cysteine]
HMLER CD24^low cells [4]
  effect of co-treatment on cell death induced by Sal and AM5: partly prevented Sal and AM5 from killing these cells

## COC(=O)C[C@H](NC(=O)[C@H](C)NC(=O)[C@@H](NC(=O)OCc1ccccc1)C(C)C)C(=O)CF [Z-VAD-FMK] (Cbz-Val-Ala-Asp(OMe)-CH2F)
iCSCL-10A2 cells
  effect of inhibitor on cell death induced by Sal or AM5: no effect on the cell death profiles

## CCOC(=O)c1ccc(NC2CCCCC2)c(N)c1 [ferrostatin-1]
iCSCL-10A2 cells
  effect of inhibitor on cell death induced by Sal or AM5: partially prevented

## CN1C(=O)C(Cc2c[nH]c3ccccc23)NC1=S (centres unmarked) [necrostatin-1]
iCSCL-10A2 cells
  effect of inhibitor on cell death induced by Sal or AM5: no effect on the cell death profiles

## TGF-31: cytokine that increases the CD44^high/CD24^Low/− population in HMLER cells
HMLER cells
  percent of CD44^high/CD24^Low/− population: 21%

## Transferrin: iron carrier protein taken up via transferrin receptor
HMLER cells; with TGF beta
  effect on TGF-beta-mediated induction of CD44^highCD24^Low/−: potentiates the TGF-beta-mediated induction

B1: OSM: cytokine oncostatin M, implicated in inducing EMT (protein, UniProt P13725 26-221, looked up)
Oncostatin-M: AAIGSCSKEYRVLLGQLQKQTDLMQDTSRLLDPYIRIQGLDVPKLREHCRERPGAFPSEETLRGLGRRGFLQTLNATLGCVLHRLADLEQRLPKAQDLERSGLNIEDLEKLQMARPNILGLRNNIYCMAQLLDNSDTAEPTKAGRGASQPPTPTPASDAFQRKLEGCRFLHGYHRFMHSVGRVFSKWGESPNRSRR
MCF-7 cells [5]
  % of CD24^high population: remains unchanged
  % of CD44^high population: 76%
  % of CD44^highCD24^Low/− CSC population: 4.84%
MCF-7 cells [6]
  ferritin protein level: increase in ferritin protein level
MCF-7 cells [6]; 72 h
  EMT marker protein levels: increase of two EMT markers Fibronectin and Snail, and the decrease of E-cad protein levels
